Activity and inhibition data for two compounds are collected here from ChEMBL document CHEMBL1139202, “Inhibition of mycobacterial arylamine N-acetyltransferase contributes to anti-mycobacterial activity of Warburgia salutaris” (Bioorg Med Chem, 2007).

Structures are written as SMILES. Active and inactive are the calls of the source. The rule behind the calls is not given here.

For experiment [1], the system named is Mycobacterium tuberculosis. Put plainly: Growth inhibition of Mycobacterium tuberculosis H37Rv at 0.05 ug/mL after 21 days. Type of experiment: functional, organism-based.
The target of experiment [2] is T1, Arylamine N-acetyltransferase (Mycolicibacterium smegmatis, UniProt O86309).
T1 sequence (O86309 whole entry): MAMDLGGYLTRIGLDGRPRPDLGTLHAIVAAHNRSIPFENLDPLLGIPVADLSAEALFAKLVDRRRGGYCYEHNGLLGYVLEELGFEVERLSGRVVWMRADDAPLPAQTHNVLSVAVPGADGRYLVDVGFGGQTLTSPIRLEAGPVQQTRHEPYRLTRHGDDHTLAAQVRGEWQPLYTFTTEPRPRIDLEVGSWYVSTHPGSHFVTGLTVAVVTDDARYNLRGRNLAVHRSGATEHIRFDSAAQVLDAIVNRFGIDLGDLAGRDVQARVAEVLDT
The experiment can be described thus: Inhibition of Mycobacterium smegmatis recombinant NAT expressed in Escherichia coli BL21 at 0.5 mg/mL.

Regarding `NNC(=O)c1ccncc1`, in experiment [1], the outcome was Active. On to `CC(=O)O[C@@H]1C=C2C(=O)O[C@@H](O)[C@]2(O)[C@@]2(C)CCCC(C)(C)[C@H]12`, for which the inhibition at 500 µg/mL in experiment [2] is 35%.

As usually defined, the inhibition is the percentage by which the read-out fell short of the control.
